According to patent publication US20200032271A1, “COMBINATION THERAPY WITH LIPOSOMAL ANTISENSE OLIGONUCLEOTIDES” (Bio-Path Holdings, Inc., priority 2016, published 2020):
Where “and” joins values, the source holds several entries; their conditions need not be identical. Identical values can stand only once. Marks after values point to notes of the source that are not given here. [PEt] = P-ethoxy (ethyl phosphotriester) internucleoside linkage

Test: Adverse events in study 2003-0578 (NCI CTCAE grading)
[1] = patient 1, 5 mg/m^2 monotherapy
[2] = patient 10, 5 mg/m^2 monotherapy

BP1001: liposome-incorporated P-ethoxy antisense oligodeoxynucleotide (5′-ATATTTGGCGATGGCTTC-3′, SEQ ID NO: 1) specific to grb2 mRNA, in neutral DOPC liposomes (DNA, all [PEt], methylation of C not given here; incorporated in neutral DOPC liposomes)
Blood and lymphatic system disorders ≥Grade 3, number of patients (monotherapy 60 mg/m^2 (n = 3)): 0
Cardiac disorders ≥Grade 3, number of patients (monotherapy 60 mg/m^2 (n = 3)): 0
Cataract ≥Grade 3, number of patients (monotherapy 60 mg/m^2 (n = 3)): 0
Dyspnea ≥Grade 3, number of patients (monotherapy 60 mg/m^2 (n = 3)): 0
Extremity Lower Edema ≥Grade 3, number of patients (monotherapy 60 mg/m^2 (n = 3)): 0
Eye disorders ≥Grade 3, number of patients (monotherapy 60 mg/m^2 (n = 3)): 0
Febrile neutropenia ≥Grade 3, number of patients (monotherapy 60 mg/m^2 (n = 3)): 0
Gastrointestinal disorders ≥Grade 3, number of patients (monotherapy 60 mg/m^2 (n = 3)): 0
General disorders and administration site conditions ≥Grade 3, number of patients (monotherapy 60 mg/m^2 (n = 3)): 0
Hallucinations ≥Grade 3, number of patients (monotherapy 60 mg/m^2 (n = 3)): 0
Heart failure ≥Grade 3, number of patients (monotherapy 60 mg/m^2 (n = 3)): 0
Hepatic failure ≥Grade 3, number of patients (monotherapy 60 mg/m^2 (n = 3)): 0
Hepatobiliary disorders ≥Grade 3, number of patients (monotherapy 60 mg/m^2 (n = 3)): 0
Hypocalcemia ≥Grade 3, number of patients (monotherapy 60 mg/m^2 (n = 3)): 0
Hypoglycemia ≥Grade 3, number of patients (monotherapy 60 mg/m^2 (n = 3)): 0
Hypokalemia ≥Grade 3, number of patients (monotherapy 60 mg/m^2 (n = 3)): 0
Hyponatremia ≥Grade 3, number of patients (monotherapy 60 mg/m^2 (n = 3)): 0
Hypotension ≥Grade 3, number of patients (monotherapy 60 mg/m^2 (n = 3)): 0
Hypovolemia ≥Grade 3, number of patients (monotherapy 60 mg/m^2 (n = 3)): 0
Hypoxia ≥Grade 3, number of patients (monotherapy 60 mg/m^2 (n = 3)): 0
Investigations ≥Grade 3, number of patients (monotherapy 60 mg/m^2 (n = 3)): 0
Leukocytosis ≥Grade 3, number of patients (monotherapy 60 mg/m^2 (n = 3)): 0
Metabolism and nutritional disorders ≥Grade 3, number of patients (monotherapy 60 mg/m^2 (n = 3)): 0
Multi-organ failure ≥Grade 3, number of patients (monotherapy 60 mg/m^2 (n = 3)): 0
Musculoskeletal and connective tissue disorders ≥Grade 3, number of patients (monotherapy 60 mg/m^2 (n = 3)): 0
Neoplasms benign, malignant, and unspecified (incl. cysts and polyps) ≥Grade 3, number of patients (monotherapy 60 mg/m^2 (n = 3)): 1
Patients with AEs ≥Grade 3, number of patients (monotherapy 60 mg/m^2 (n = 3)): 1
Penile Pain ≥Grade 3, number of patients (monotherapy 60 mg/m^2 (n = 3)): 0
Platelet count decreased ≥Grade 3, number of patients (monotherapy 60 mg/m^2 (n = 3)): 0
Pneumonia ≥Grade 3, number of patients (monotherapy 60 mg/m^2 (n = 3)): 0
Psychiatric disorders ≥Grade 3, number of patients (monotherapy 60 mg/m^2 (n = 3)): 0
Renal and urinary disorders ≥Grade 3, number of patients (monotherapy 60 mg/m^2 (n = 3)): 0
Reproductive system and breast disorders ≥Grade 3, number of patients (monotherapy 60 mg/m^2 (n = 3)): 0
Respiratory distress ≥Grade 3, number of patients (monotherapy 60 mg/m^2 (n = 3)): 0
Respiratory failure ≥Grade 3, number of patients (monotherapy 60 mg/m^2 (n = 3)): 0
Respiratory, thoracic, and mediastinal disorders ≥Grade 3, number of patients (monotherapy 60 mg/m^2 (n = 3)): 0
Tumor lysis syndrome ≥Grade 3, number of patients (monotherapy 60 mg/m^2 (n = 3)): 0
Vascular disorders ≥Grade 3, number of patients (monotherapy 60 mg/m^2 (n = 3)): 0
AML progression, number of patients (monotherapy 90 mg/m^2 (n = 4)): 2
Abdominal Pain ≥Grade 3, number of patients (monotherapy 90 mg/m^2 (n = 4)): 0
Acidosis ≥Grade 3, number of patients (monotherapy 90 mg/m^2 (n = 4)): 0
Acute kidney injury ≥Grade 3, number of patients (monotherapy 90 mg/m^2 (n = 4)): 0
Asthenia ≥Grade 3, number of patients (monotherapy 90 mg/m^2 (n = 4)): 1
Back Pain ≥Grade 3, number of patients (monotherapy 90 mg/m^2 (n = 4)): 0
Blood and lymphatic system disorders ≥Grade 3, number of patients (monotherapy 90 mg/m^2 (n = 4)): 1
Cardiac disorders ≥Grade 3, number of patients (monotherapy 90 mg/m^2 (n = 4)): 0
Cataract ≥Grade 3, number of patients (monotherapy 90 mg/m^2 (n = 4)): 0
Dyspnea ≥Grade 3, number of patients (monotherapy 90 mg/m^2 (n = 4)): 1
Extremity Lower Edema ≥Grade 3, number of patients (monotherapy 90 mg/m^2 (n = 4)): 0
Eye disorders ≥Grade 3, number of patients (monotherapy 90 mg/m^2 (n = 4)): 0
Febrile neutropenia ≥Grade 3, number of patients (monotherapy 90 mg/m^2 (n = 4)): 0
Gastrointestinal disorders ≥Grade 3, number of patients (monotherapy 90 mg/m^2 (n = 4)): 0
General disorders and administration site conditions ≥Grade 3, number of patients (monotherapy 90 mg/m^2 (n = 4)): 1
Hallucinations ≥Grade 3, number of patients (monotherapy 90 mg/m^2 (n = 4)): 0
Heart failure ≥Grade 3, number of patients (monotherapy 90 mg/m^2 (n = 4)): 0
Hepatic failure ≥Grade 3, number of patients (monotherapy 90 mg/m^2 (n = 4)): 0
Hepatobiliary disorders ≥Grade 3, number of patients (monotherapy 90 mg/m^2 (n = 4)): 0
Hypocalcemia ≥Grade 3, number of patients (monotherapy 90 mg/m^2 (n = 4)): 1
Hypoglycemia ≥Grade 3, number of patients (monotherapy 90 mg/m^2 (n = 4)): 0
Hypokalemia ≥Grade 3, number of patients (monotherapy 90 mg/m^2 (n = 4)): 1
Hyponatremia ≥Grade 3, number of patients (monotherapy 90 mg/m^2 (n = 4)): 1
Hypotension ≥Grade 3, number of patients (monotherapy 90 mg/m^2 (n = 4)): 0
Hypovolemia ≥Grade 3, number of patients (monotherapy 90 mg/m^2 (n = 4)): 0
Hypoxia ≥Grade 3, number of patients (monotherapy 90 mg/m^2 (n = 4)): 0
Investigations ≥Grade 3, number of patients (monotherapy 90 mg/m^2 (n = 4)): 1
Leukocytosis ≥Grade 3, number of patients (monotherapy 90 mg/m^2 (n = 4)): 1
Metabolism and nutritional disorders ≥Grade 3, number of patients (monotherapy 90 mg/m^2 (n = 4)): 3
Multi-organ failure ≥Grade 3, number of patients (monotherapy 90 mg/m^2 (n = 4)): 0
Musculoskeletal and connective tissue disorders ≥Grade 3, number of patients (monotherapy 90 mg/m^2 (n = 4)): 0
Neoplasms benign, malignant, and unspecified (incl. cysts and polyps) ≥Grade 3, number of patients (monotherapy 90 mg/m^2 (n = 4)): 0
Patients with AEs ≥Grade 3, number of patients (monotherapy 90 mg/m^2 (n = 4)): 4
Penile Pain ≥Grade 3, number of patients (monotherapy 90 mg/m^2 (n = 4)): 0
Platelet count decreased ≥Grade 3, number of patients (monotherapy 90 mg/m^2 (n = 4)): 1^a
Pneumonia ≥Grade 3, number of patients (monotherapy 90 mg/m^2 (n = 4)): 2
Psychiatric disorders ≥Grade 3, number of patients (monotherapy 90 mg/m^2 (n = 4)): 0
Renal and urinary disorders ≥Grade 3, number of patients (monotherapy 90 mg/m^2 (n = 4)): 0
Reproductive system and breast disorders ≥Grade 3, number of patients (monotherapy 90 mg/m^2 (n = 4)): 0
Respiratory distress ≥Grade 3, number of patients (monotherapy 90 mg/m^2 (n = 4)): 0
Respiratory failure ≥Grade 3, number of patients (monotherapy 90 mg/m^2 (n = 4)): 0
Respiratory, thoracic, and mediastinal disorders ≥Grade 3, number of patients (monotherapy 90 mg/m^2 (n = 4)): 1
Tumor lysis syndrome ≥Grade 3, number of patients (monotherapy 90 mg/m^2 (n = 4)): 0
Vascular disorders ≥Grade 3, number of patients (monotherapy 90 mg/m^2 (n = 4)): 0
Dose-limiting Toxicity (DLT): Coagulopathy [1]: No
Dose-limiting Toxicity (DLT): Confusion [1]: No
Dose-limiting Toxicity (DLT): Diarrhea [1]: No
Dose-limiting Toxicity (DLT): Edema (limbs) [1]: No
Dose-limiting Toxicity (DLT): Fever (pyrexia) [1]: No
Dose-limiting Toxicity (DLT): Hyperkalemia [1]: No
Dose-limiting Toxicity (DLT): Hypocalcemia [1]: No
Dose-limiting Toxicity (DLT): Hypokalemia [1]: No
Dose-limiting Toxicity (DLT): Mucositis [1]: No and Yes ^a
Dose-limiting Toxicity (DLT): Multi-organ failure [1]: No
Dose-limiting Toxicity (DLT): Nausea [1]: No
Dose-limiting Toxicity (DLT): Pain [1]: No
Dose-limiting Toxicity (DLT): Pain in extremity [1]: No
Dose-limiting Toxicity (DLT): Palmar-plantar erythrodysesthesia (hand and foot) syndrome [1]: Yes ^a
Dose-limiting Toxicity (DLT): Pruritus [1]: No
Grade: Coagulopathy (related to study drug) [1]: 1
Grade: Confusion [1]: 1
Grade: Diarrhea [1]: 1
Grade: Edema (limbs) [1]: 2
Grade: Fever (pyrexia) [1]: 1
Grade: Hyperkalemia [1]: 2
Grade: Hypokalemia [1]: 3
Grade: Mucositis [1]: 2 and 4
Grade: Multi-organ failure [1]: 5
Grade: Nausea [1]: 2
Grade: Pain [1]: 2
Grade: Pain in extremity [1]: 2
Grade: Palmar-plantar erythrodysesthesia (hand and foot) syndrome [1]: 3
Grade: Pruritus [1]: 1
Dose-limiting Toxicity (DLT): Blood creatinine increased [2]: No
Grade: Blood creatinine increased [2]: 2
